Tested on: Candida albicans(KCTC 1940), Aspergillus niger (ATCC 9642) and Saccharomyces cerevisiae
Assay: Relative antifungal activity by agar dilution method (vs Miconazole);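 further: scores 5 to 7 mean a lower fungicidal concentration than Miconazole so higher is more potent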
Format: cell-based
Text: Novel compounds represented by the above chemical formula (I), and the relative activities in accordance with the agar dilution method in Sabouraud dextrose agar media, Czapek agar media and Yeast Extract-Peptone-Dextrose agar media for Candida albicans(KCTC 1940), Aspergillus niger (ATCC 9642) and Saccharomyces cerevisiae are described respectively in following Table 1.

[1] = agar dilution method, fungicidal concentration relative to control drug Miconazole (=4)

Row | SMILES | Relative Activity [1] | Relative Activity (antifungal activity relative to Miconazole, agar dilution)
1 | CCCCCCCC1=[N+](Cc2ccc(OC)cc2)CCc2cc(OC)c(OC)cc21.[Cl-] [Compound No. 36, 1-n-heptyl-2-(4-methoxyphenyl)methyl-3,4-dihydro-6,7-dimethoxyisoquinolinium chloride] | 3 | –
2 | COc1cc2c(cc1OC)C(CCc1ccc(C(C)(C)C)cc1)=[N+](Cc1cccc(OC)c1OCc1c(F)cccc1Cl)CC2 [Compound No. 133, 1-(2-(4-t-butylphenyl))ethyl-2-(2-(2-chloro-6-fluorobenzyloxy)-3-methoxyphenyl)methyl-3,4-dihydro-6,7-dimethoxyisoquinolinium chloride] | 1 | –
3 | CCCCCCCC1=[N+](Cc2ccc(F)c(F)c2)CCc2cc3c(cc21)OCO3.[Cl-] [Compound No. 112, 1-n-heptyl-2-(3,4-difluorophenyl)methyl-3,4-dihydro-6,7-methylenedioxyisoquinolinium chloride] | 4 | –
4 | CCCCCCCCCCCC1=[N+](Cc2ccc(NC(=O)OCC)c(NC(=O)OCC)c2)CCc2cc(OC)c(OC)cc21.[Cl-] [Compound No. 122, 6,7-dimethoxy-2-(3,4-bis(ethoxy Carbonylamino)phenyl)methyl-3,4-dihydro-1-undecylisoquinolinium chloride] | 2 | –
5 | COc1cc2c(cc1OC)C(c1ccccc1F)=[N+](Cc1c(F)cccc1Cl)CC2.[Cl-] [Compound No. 69, 1-(2-fluorophenyl)-2-(2-chloro-6-fluorophenyl)methyl-3,4-dihydro-6,7-dimethoxyisoquinolinium chloride] | 6 | –
6 | CCCCCCC1=[N+](Cc2ccccc2F)CCc2cc(OC)c(OC)cc21.[Cl-] [Compound No. 10, 1-n-hexyl-2-(2-fluorophenyl)methyl-3,4-dihydro-6,7-dimethoxyisoquinolinium chloride] | 4 | –
7 | CCCCCCCC1=[N+](Cc2c(F)cccc2F)CCc2cc(OC)c(OC)cc21.[Cl-] [Compound No. 61, 1-n-heptyl-2-(2,6-difluorophenyl)methyl-3,4-dihydro-6,7-dimethoxyisoquinolinium chloride] | 4 | –
8 | CCCCCCCC1=[N+](Cc2ccccc2Cl)CCc2cc(OC)c(OC)cc21.[Cl-] [Compound No. 52, 1-n-heptyl-2-(2-chlorophenyl)methyl-3,4-dihydro-6,7-dimethoxyisoquinolinium chloride] | 3 | –
9 | COc1cc2c(cc1OC)C(C(C)C)=[N+](Cc1ccccc1F)CC2.[Cl-] [Compound No. 6, 1-i-propyl-2-(2-fluorophenyl)methyl-3,4-dihydro-6,7-dimethoxyisoquinolinium chloride] | 5 | –
10 | COc1cc2cc[n+](Cc3ccc(C(C)(C)C)cc3)cc2cc1OC.[Cl-] [Compound No. 142, 2-(4-t-butylphenyl)methyl-6,7-dimethoxy-isoquinolinium chloride] | – | 6
11 | COc1cc2c(cc1OC)C(C)=[N+](Cc1ccccc1F)CC2.[Cl-] [Compound No. 2, 1-methyl-2-(2-fluorophenyl)methyl-3,4-dihydro-6,7-dimethoxy-isoquinolinium chloride] | 6 | –
12 | COc1cc2c(cc1OC)CC[N+](Cc1ccccc1F)=C2.[Cl-] [Compound No. 1, 2-(2-fluorophenyl)methyl-3,4-dihydro-6,7-dimethoxy-isoquinolinium chloride] | 6 | –
13 | COc1cc2c(cc1OC)C(c1ccc(F)cc1F)=[N+](Cc1ccccc1F)CC2.[Cl-] [Compound No. 16, 1-(2,4-difluorophenyl)-2-(2-fluorophenyl)methyl-3,4-dihydro-6,7-dimethoxyisoquinolinium chloride] | 6 | –
14 | COc1cc2c(cc1OC)C(C)=[N+](Cc1cc(Br)c(OC)c(OC)c1)CC2.[Cl-] [Compound No. 78, 1-methyl-2-(3-bromo-4,5-dimethoxy)methyl-3,4-dihydro-6,7-dimethoxyisoquinolinium chloride] | 6 | –
15 | COc1cc2c(cc1OC)C(C)=[N+](Cc1ccccc1Cl)CC2.[Cl-] [Compound No. 49, 1-methyl-2-(2-chlorophenyl)methyl-3,4-dihydro-6,7-dimethoxyisoquinolinium chloride] | 6 | –
16 | COc1cc2c(cc1OC)C(c1ccc(Cl)cc1)=[N+](Cc1ccccc1F)CC2.[Cl-] [Compound No. 20, 1-(4-chlorophenyl)-2-(2-fluorophenyl)methyl-3,4-dihydro-6,7-dimethoxyisoquinolinium chloride] | 6 | –
17 | CCCCCCCCCCCC1=[N+](Cc2ccc(F)c(F)c2)CCc2cc(OC)c(OC)cc21.[Cl-] [Compound No. 44, 1-n-undecyl-2-(3,4-difluorophenyl)methyl-3,4-dihydro-6,7-dimethoxyisoquinolinium chloride] | 1 | –
18 | CCCCCCC1=[N+](Cc2ccc(C(F)(F)F)cc2)CCc2cc(OC)c(OC)cc21.[Cl-] [Compound No. 45, 1-n-hexyl-2-(4-trifluoromethylphenyl)methyl-3,4-dihydro-6,7-dimethoxyisoquinolinium chloride] | 4 | –

Row | SMILES | Relative Activity [1] | Relative Activity (antifungal activity relative to Miconazole, agar dilution)
19 | COc1ccc2c(c1)CC[N+](Cc1ccccc1F)=C2c1ccccc1F.[Cl-] [Compound No. 90, 1-(2-fluorophenyl)-2-(2-fluorophenyl)methyl-3,4-dihydro-6-methoxyisoquinolinium chloride] | 6 | –
20 | COc1cc2c(cc1OC)C(C(C)C)=[N+](Cc1ccc(F)c(F)c1)CC2.[Cl-] [Compound No. 40, 1-i-propyl-2-(3,4-difluorophenyl)methyl-3,4-dihydro-6,7-dimethoxyisoquinolinium chloride] | 6 | –
21 | CCCCCCC1=[N+](Cc2ccc(OC)cc2)CCc2cc(OC)c(OC)cc21.[Cl-] [Compound No. 35, 1-n-hexyl-2-(4-methoxyphenyl)methyl-3,4-dihydro-6,7-dimethoxyisoquinolinium chloride] | 4 | –
22 | CCCCCCCCCCCC1=[N+](Cc2ccccc2[N+](=O)[O-])CCc2cc(OC)c(OC)cc21.[Cl-] [Compound No. 74, 1-n-undecyl-2-(2-nitrophenyl)methyl-3,4-dihydro-6,7-dimethoxyisoquinolinium chloride] | 2 | –
23 | CCCCCCCC1=[N+](Cc2ccc(C(F)(F)F)cc2)CCc2cc(OC)c(OC)cc21.[Cl-] [Compound No. 28, 1-n-heptyl-2-(4-trifluoromethylphenyl)methyl-3,4-dihydro-6,7-dimethoxyisoquinolinium chloride] | 4 | –
24 | COc1cc2c(cc1OC)C(c1ccc(F)c(F)c1)=[N+](Cc1ccccc1F)CC2.[Cl-] [Compound No. 17, 1-(3,4-difluorophenyl)-2-(2-fluorophenyl)methyl-3,4-dihydro-6,7-dimethoxyisoquinolinium chloride] | 6 | –
25 | CCCCCCCC1=[N+](Cc2c(F)cccc2Cl)CCc2cc(OC)c(OC)cc21.[Cl-] [Compound No. 67, 1-n-heptyl-2-(2-chloro-6-fluorophenyl)methyl-3,4-dihydro-6,7-dimethoxyisoquinolinium chloride] | 4 | –
26 | COc1cc2c(cc1OC)C(Cc1ccccc1F)=[N+](Cc1ccccc1F)CC2.[Cl-] [Compound No. 24, 1-(2-fluorophenyl)methyl-2-(2-fluorophenyl)methyl-3,4-dihydro-6,7-dimethoxyisoquinolinium chloride] | 6 | –
27 | COc1cc2c(cc1OC)C(c1ccc(C(C)(C)C)cc1)=[N+](Cc1c(F)cccc1F)CC2.[Cl-] [Compound No. 63, 1-(4-t-butylphenyl)-2-(2,6-difluorophenyl)methyl-3,4-dihydro-6,7-dimethoxyisoquinolinium chloride] | 6 | –
28 | CC1=[N+](Cc2ccc(C(F)(F)F)cc2)CCc2cc3c(cc21)OCO3.[Cl-] [Compound No. 107, 1-methyl-2-(4-trifluoromethylphenyl)methyl-3,4-dihydro-6,7-methylenedioxyisoquinolinium chloride] | 6 | –
29 | COc1cc2c(cc1OC)C(CCl)=[N+](Cc1ccccc1F)CC2.[Cl-] [Compound No. 3, 1-chloromethyl-2-(2-fluorophenyl)methyl-3,4-dihydro-6,7-dimethoxy-isoquinolinium chloride] | 6 | –
30 | COc1cc2c(cc1OC)C(c1cccc(F)c1F)=[N+](Cc1ccccc1F)CC2.[Cl-] [Compound No. 15, 1-(2,3-difluorophenyl)-2-(2-fluorophenyl)methyl-3,4-dihydro-6,7-dimethoxyisoquinolinium chloride] | 6 | –
31 | CCCCCC1=[N+](Cc2ccccc2F)CCc2cc(OC)ccc21.[Cl-] [Compound No. 85, 1-n-pentyl-2-(2-fluorophenyl)methyl-3,4-dihydro-6-methoxyisoquinolinium chloride] | 5 | –
32 | COc1cc2c(cc1OC)C(C(C)C)=[N+](Cc1c(F)cccc1Cl)CC2.[Cl-] [Compound No. 65, 1-i-propyl-2-(2-chloro-6-fluorophenyl)methyl-3,4-dihydro-6,7-dimethoxyisoquinolinium chloride] | 5 | –
33 | COc1cc2c(cc1OC)C(C)=[N+](Cc1ccccc1[N+](=O)[O-])CC2.[Cl-] [Compound No. 71, 1-methyl-2-(2-nitrophenyl)methyl-3,4-dihydro-6,7-dimethoxyisoquinolinium chloride] | 6 | –
34 | CCCCCC1=[N+](Cc2c(F)cccc2Cl)CCc2cc(OC)c(OC)cc21.[Cl-] [Compound No. 66, 1-n-pentyl-2-(2-chloro-6-fluorophenyl)methyl-3,4-dihydro-6,7-dimethoxyisoquinolinium chloride] | 5 | –
35 | CCCCCCCCCCCC1=[N+](Cc2ccc(C(F)(F)F)cc2)CCc2cc(OC)c(OC)cc21.[Cl-] [Compound No. 29, 1-n-undecyl-2-(4-trifluoromethylphenyl)methyl-3,4-dihydro-6,7-dimethoxyisoquinolinium chloride] | 1 | –

Source: patent publication US20090221829A1 (priority 2005, published 2009)
